According to ChEMBL document CHEMBL5335798 (J Med Chem, 2024):

Assay: Permeability of compound at pH 7.4 at 200 uM measured after 5 hrs by PAMPA assay

Papp at 5 h, 200 µM: 10.5 ×10⁻⁶ cm/s
Compound: CCC([Se]c1ccc2ccccc2c1)c1nc(N)nc(N2CCN(C)CC2)n1 (stereo unspecified)
